Reference: paper PMC3739763 (PLoS ONE, 2013)
Where two headings read alike, the source gives them in different places.

Key:
[1] = biological target: T1, Human serum albumin (HSA) (Homo sapiens, UniProt P02768); assay: Steady state fluorescence quenching of HSA by HA; type: binding; settings: for KSV (Stern-Volmer quenching constant) / n (binding sites): pH 7.4, HSA 5 µM; for TΔS°: van't Hoff
T1 construct: I (residues 1–195), II (196–383), III (384–585); purchased Sigma Aldrich A1887
Procedure: Fluorescence emission spectra were recorded in range of 300–400 nm on a Shimadzu 5301PC fluorescence spectrophotometer equipped with water circulator (Julabo Eyela) at excitation wavelength of 295 nm. Both the excitation and emission slits were set at 3 nm. […] Respective blanks were subtracted. […] Furthermore if a quencher, Q, form complex, Q n B, with protein B and have ‘n’ multiple (equivalent and independent) binding sites then quenching reaction is often represented as: [drawing 5] (2) and its binding constant (Kb ) is given by equation 3:[18]
[drawing 6] (3) If the total amount of protein (with and without bound Q) is [B o], then [drawing 7] (4) [drawing 8] (5) where [B] is the concentration of the unbound protein. The fluorescence intensity is proportional to the protein concentration as described below: [drawing 9] (6) then, relationship between the fluorescence intensity and unbound protein is expressed as:
[drawing 10] (7) So, if the formation of a nonfluorescent fluorophore–quencher complex occurs, then, the value of K b can be obtained by using equation 7.

[2] = biological target: T1, Human serum albumin (HSA); assay: Binding displacement measurement using site markers (fluorescence, Stern-Volmer); settings: protein:marker 1:1
Procedure: Different site markers warfarin (WAR) for site I and diazepam (DIA) for site II [19], [20] were used for performing displacement experiments. […] The fluorescence emission spectra were recorded as mentioned in fluorescence measurements and the binding constant values of drug–protein–marker were evaluated using Stern–Volmer equation.

[3] = biological target: T1, Human serum albumin (HSA); assay: Isothermal titration calorimetry (ITC), sequential model of two binding sites; settings: for van't Hoff enthalpy: equation 12; for ΔCP (change in heat capacity): 25-37 °C
Procedure: Prior to the titration experiment, all solutions were degassed properly on a thermovac. The 1.44 mL sample and reference cell of the calorimeter were loaded with HSA and 20 mM sodium phosphate buffer (pH 7.4), respectively. […] The reference power was set at 16 µcal s^−1. […] Heats of dilution for the ligand and protein were subtracted from the integrated data before curve fitting. The data were fitted and analyzed with a sequential model of two binding sites using Origin 7.0 provided with the MicroCal instrument. Association constant (K b) and standard enthalpy change (ΔH°) were directly obtained after fitting while ΔG° was calculated from equation 8. The ΔS ^o was calculated using the equation: [drawing 13] (10) and change in specific heat capacity can be calculated from the equation:
[drawing 14] (11) Further the standard van’t Hoff enthalpy [drawing 15] at each temperature was calculated using equation: [drawing 16] (12) here, K(T1) and K(T2) are the values of binding constant at temperatures T 1 and T 2 respectively.

[4] = biological target: T1, Human serum albumin (HSA); assay: Differential scanning calorimetry (DSC) thermostability of HSA in presence of HA; type: binding
Procedure: The differential scanning calorimetric measurements were carried out using VP-DSC microcalorimeter (MicroCal, Northampton, MA). The buffer and protein solutions were degassed under mild vacuum prior to the experiment. Samples were prepared in 20 mM sodium phosphate buffer, pH 7.4. […] 1∶0, 1∶5, and 1∶10 were performed from 25 to 90°C at a scan rate of 0.5°C/min. Data were analyzed using Origin software provided with the instrument to obtain the temperature at the midpoint of the unfolding transition (T m) and calorimetric enthalpy (ΔH°).

[5] = biological target: T1, Human serum albumin (HSA); assay: Esterase-like activity of HSA toward p-NPA in presence of HA; type: biochemical
[6] = design: method as in PMID 12675874; settings: cited from earlier work
[7] = design: method as in PMID 1643710, PMID 11721007; settings: cited from earlier work

T1 sequence (P02768 25-609): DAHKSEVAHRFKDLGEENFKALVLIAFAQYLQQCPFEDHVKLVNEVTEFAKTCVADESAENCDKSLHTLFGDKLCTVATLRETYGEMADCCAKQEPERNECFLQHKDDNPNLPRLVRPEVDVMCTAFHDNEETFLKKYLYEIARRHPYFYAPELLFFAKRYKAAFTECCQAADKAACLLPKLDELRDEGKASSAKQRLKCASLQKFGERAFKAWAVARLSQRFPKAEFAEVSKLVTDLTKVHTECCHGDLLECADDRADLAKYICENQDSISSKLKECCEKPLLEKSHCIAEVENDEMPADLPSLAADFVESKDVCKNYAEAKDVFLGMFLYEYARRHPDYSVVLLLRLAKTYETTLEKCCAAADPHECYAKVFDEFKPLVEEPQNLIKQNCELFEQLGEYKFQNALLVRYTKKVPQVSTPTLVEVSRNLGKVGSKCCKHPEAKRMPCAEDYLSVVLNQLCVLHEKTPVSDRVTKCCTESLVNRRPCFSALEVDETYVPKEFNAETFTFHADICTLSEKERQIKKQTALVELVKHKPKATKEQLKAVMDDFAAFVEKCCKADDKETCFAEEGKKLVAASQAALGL

SMILES: O=C(O)CNC(=O)c1ccccc1 [HA, hippuric acid]
- k q (bimolecular rate constant) ([1]; 25 °C): (1.36±0.06 ) ×10^12 M^−1 s^−1
- ΔG° ([1]; 25 °C): -5.21 ± 0.02 kcal/mol
- KSV (Stern-Volmer quenching constant) ([1]; 25 °C): (7.80±0.36) ×10^3 M^−1
- n (binding sites) ([1]; 25 °C): 0.98±0.02
- TΔS° ([1]; 25 °C): -23.48 ± 0.24 kcal/mol
- k q (bimolecular rate constant) ([1]; 30 °C): (5.77±0.03 ) ×10^11 M^−1 s^−1
- ΔG° ([1]; 30 °C): -4.88 ± 0.06 kcal/mol
- KSV (Stern-Volmer quenching constant) ([1]; 30 °C): (3.30±0.02) ×10^3 M^−1
- n (binding sites) ([1]; 30 °C): 0.99±0.01
- TΔS° ([1]; 30 °C): -23.88 ± 0.24 kcal/mol
- k q (bimolecular rate constant) ([1]; 37 °C): (2.29±0.01 ) ×10^11 M^−1 s^−1
- ΔG° ([1]; 37 °C): -4.28 ± 0.01 kcal/mol
- KSV (Stern-Volmer quenching constant) ([1]; 37 °C): (1.31±0.08) ×10^3 M^−1
- n (binding sites) ([1]; 37 °C): 0.97±0.02
- TΔS° ([1]; 37 °C): -24.43 ± 0.25 kcal/mol
- K b (order of magnitude) ([1]; spectroscopic results, single site): ~10^3
- K sv of HSA-HA in presence of site marker ([2]; in presence of DIA (site II marker)): (2.03±0.03)× 10^3 M^−1
- K sv of HSA-HA in presence of site marker ([2]; in presence of WAR (site I marker)): (2.74±0.04)×10^3 M^−1
- van't Hoff enthalpy ([3]; 25 °C, high affinity site): -11.98 kcal/mol
- van't Hoff enthalpy ([3]; 25 °C, low affinity site): -24.69 kcal/mol
- ΔG° ([3]; High affinity site, 25 °C): -6.05 ± 0.10 kcal/mol
- ΔH° ([3]; High affinity site, 25 °C): -4.41 ± 0.46 kcal/mol
- TΔS° ([3]; High affinity site, 30 °C): 0.76 ± 0.06 kcal/mol
- ΔG° ([3]; High affinity site, 30 °C): -5.94 ± 0.01 kcal/mol
- ΔH° ([3]; High affinity site, 30 °C): -5.18 ± 0.07 kcal/mol
- TΔS° ([3]; High affinity site, 37 °C): -0.20 ± 0.01 kcal/mol
- ΔG° ([3]; High affinity site, 37 °C): -5.93 ± 0.02 kcal/mol
- ΔH° ([3]; High affinity site, 37 °C): -6.14 ± 0.15 kcal/mol
- TΔS° ([3]; Low affinity site, 25 °C): -2.88 ± 0.40 kcal/mol
- ΔG° ([3]; Low affinity site, 25 °C): -4.69 ± 0.10 kcal/mol
- ΔH° ([3]; Low affinity site, 25 °C): -7.58 ± 0.96 kcal/mol
- TΔS° ([3]; Low affinity site, 30 °C): -5.39 ± 0.35 kcal/mol
- ΔG° ([3]; Low affinity site, 30 °C): -4.35 ± 0.02 kcal/mol
- ΔH° ([3]; Low affinity site, 30 °C): -9.74 ± 0.34 kcal/mol
- TΔS° ([3]; Low affinity site, 37 °C): -6.69 ± 0.36 kcal/mol
- ΔG° ([3]; Low affinity site, 37 °C): -4.41 ± 0.03 kcal/mol
- ΔH° ([3]; Low affinity site, 37 °C): -11.11 ± 0.69 kcal/mol
- K b (order of magnitude) ([3]; high affinity site): ~10^4
- ΔCP (change in heat capacity) ([3]; high affinity site): −0.14±0.11 kcal mol^−1°C^−1
- K b (order of magnitude) ([3]; low affinity site): ~10^3
- ΔCP (change in heat capacity) ([3]; low affinity site): −0.28±0.24 kcal mol^−1°C^−1
- Tm of first sub-transition of HSA (head drawing C00030) ([4]; HSA:HA 1∶5, HSA 18 µM): 57.25±0.01 °C
- Tm of second sub-transition of HSA (head drawing C00031) ([4]; HSA:HA 1∶5, HSA 18 µM): 62.51±0.09 °C
- Tm of third sub-transition of HSA (head drawing C00032) ([4]; HSA:HA 1∶5, HSA 18 µM): 73.87±0.04 °C
- ΔH° of first sub-transition (head drawing C00033) ([4]; HSA:HA 1∶5, HSA 18 µM): 54.41 ± 0.10 kcal/mol
- ΔH° of second sub-transition (head drawing C00034) ([4]; HSA:HA 1∶5, HSA 18 µM): 56.13 ± 0.12 kcal/mol
- ΔH° of third sub-transition (head drawing C00035) ([4]; HSA:HA 1∶5, HSA 18 µM): 13.92 ± 0.07 kcal/mol
- Tm of first sub-transition of HSA (head drawing C00030) ([4]; HSA:HA 1∶10, HSA 18 µM): 58.36±0.08 °C
- Tm of second sub-transition of HSA (head drawing C00031) ([4]; HSA:HA 1∶10, HSA 18 µM): 63.83±0.02 °C
- Tm of third sub-transition of HSA (head drawing C00032) ([4]; HSA:HA 1∶10, HSA 18 µM): 73.96±0.03 °C
- ΔH° of first sub-transition (head drawing C00033) ([4]; HSA:HA 1∶10, HSA 18 µM): 68.47 ± 0.80 kcal/mol
- ΔH° of second sub-transition (head drawing C00034) ([4]; HSA:HA 1∶10, HSA 18 µM): 57.37 ± 0.60 kcal/mol
- ΔH° of third sub-transition (head drawing C00035) ([4]; HSA:HA 1∶10, HSA 18 µM): 13.90 ± 0.09 kcal/mol
- Vmax for hydrolysis of p-NPA by HSA ([5]; HSA:HA 1∶0.5, HSA 15 µM, 25 °C): 0.16 ± 0.02 µM/s
- Vmax for hydrolysis of p-NPA by HSA ([5]; HSA:HA 1∶1, HSA 15 µM, 25 °C): 0.16 ± 0.01 µM/s
- Vmax for hydrolysis of p-NPA by HSA ([5]; HSA:HA 1∶2, HSA 15 µM, 25 °C): 0.16 ± 0.02 µM/s
- Vmax for hydrolysis of p-NPA by HSA ([5]; HSA:HA 1∶3, HSA 15 µM, 25 °C): 0.16 ± 0.01 µM/s
- Ki ([5]; competitive, substrate p-NPA, 25 °C, read-out: K i (inhibitor constant) for esterase-like activity of HSA): 21.7 µM
- Mode of inhibition of esterase-like activity of HSA ([5]; substrate p-NPA): competitively
- concentration of HA ([6]; healthy individual): less than 5 mg/L
- concentration of HA ([6]; patients with end-stage renal disease): higher than 247±112 mg/L
- elimination of HA through hemodialysis [7]: 64%
